In patent US11897851B2, “Heterocyclic GLP-1 agonists” (Gasherbrum Bio, Inc., priority 2021, dated 2024):

Each molecule was assayed against T1, GLP-1 Receptor (Homo sapiens, UniProt P43220) (assay: GLP-1R agonist cAMP stimulation assay (HEK293/GLP1R/CRE-LUC cells, Cisbio cAMP dynamic 2 kit)). Details: HEK293/CRE-Luc cell line stably expressing the GLP-1 Receptor; 1000 cells/well; 30 min at 37° C.; 0.5 mM IBMX, 0.1% BSA; read-out: GLP1R cAMP Stimulation DR: EC50.
T1 construct: host or cells: HEK293/GLP1R/CRE-LUC (HEK293/CRE-Luc stably expressing the GLP-1 receptor)
T1 sequence (P43220 24-463, species assumed): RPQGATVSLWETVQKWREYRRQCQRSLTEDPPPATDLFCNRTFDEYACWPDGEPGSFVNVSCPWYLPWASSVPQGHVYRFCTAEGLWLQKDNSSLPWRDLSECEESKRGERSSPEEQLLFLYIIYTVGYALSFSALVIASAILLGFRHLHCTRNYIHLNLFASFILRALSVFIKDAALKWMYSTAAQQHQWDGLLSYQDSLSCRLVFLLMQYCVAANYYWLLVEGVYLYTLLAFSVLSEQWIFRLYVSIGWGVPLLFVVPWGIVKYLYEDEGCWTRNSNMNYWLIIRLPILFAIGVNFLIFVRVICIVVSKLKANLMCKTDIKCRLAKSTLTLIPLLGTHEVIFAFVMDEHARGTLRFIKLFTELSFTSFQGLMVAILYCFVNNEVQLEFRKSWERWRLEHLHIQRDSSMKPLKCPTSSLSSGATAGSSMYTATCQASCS
Format: cell-based
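Also: compounds tested in half-log serial dilution, cAMP detected with cAMP-d2 and anti-cAMP cryptate antibody reagents after 1 h at room temperature.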

| Compound | EC50 [nM] |
| --- | --- |
| CC1(c2ccc(Cl)cc2F)Oc2cccc(C3CCN(Cc4ncc(/C=C/C(=O)O)n4C[C@@H]4CCCO4)CC3)c2O1 (stereo partly drawn) [Compound 140a, (E)-3-(2-((4-(2-(4-chloro-2-fluorophenyl)-2-methylbenzo[d][1,3]dioxol-4-yl)piperidin-1-yl)methyl)-1-(((S)-tetrahydrofuran-2-yl)methyl)-1H-imidazol-5-yl)acrylic acid] | 0.09 |
| O=C(O)C1CC1c1cnc(CN2CCC(c3cccc(OCc4ccc(Cl)cc4F)n3)CC2)n1C[C@@H]1CCO1 (stereo partly drawn) [Compound 114a, 2-(2-((4-(6-((4-chloro-2-fluorobenzyl)oxy)pyridin-2-yl)piperidin-1-yl)methyl)-1-(((S)-oxetan-2-yl)methyl)-1H-imidazol-5-yl)cyclopropane-1-carboxylic acid] | 9.4 |
| O=c1[nH]c(-c2cnc(CN3CCC(c4cccc(OCc5ccc(Cl)cc5F)n4)CC3)n2C[C@@H]2CCO2)no1 [Compound 249a, (S)-3-(2-((4-(6-((4-chloro-2-fluorobenzyl)oxy)pyridin-2-yl)piperidin-1-yl)methyl)-1-(oxetan-2-ylmethyl)-1H-imidazol-5-yl)-1,2,4-oxadiazol-5(4H)-one] | 3.7 |
| CCn1cncc1Cn1c(/C=C(\C)C(=O)O)cnc1CN1CCC(c2cccc(OCc3ccc(Cl)cc3F)n2)CC1 [Compound 219, (E)-3-(2-((4-(6-((4-chloro-2-fluorobenzyl)oxy)pyridin-2-yl)piperidin-1-yl)methyl)-1-((1-ethyl-1H-imidazol-5-yl)methyl)-1H-imidazol-5-yl)-2-methylacrylic acid] | 0.0069 |
| Cc1ncccc1Cn1c(/C=C/C(=O)O)cnc1CN1CCC(c2cccc3c2OC(C)(c2ccc(Cl)cc2F)O3)CC1 (centres unmarked) [Compound 147, (E)-3-(2-((4-(2-(4-chloro-2-fluorophenyl)-2-methylbenzo[d][1,3]dioxol-4-yl)piperidin-1-yl)methyl)-1-((2-methylpyridin-3-yl)methyl)-1H-imidazol-5-yl)acrylic acid] | 0.045 |
| O=C(O)/C=C/c1cn(Cc2ncco2)c(CN2CCC(c3cccc4c3OC[C@@H](c3ccc(Cl)cc3)O4)CC2)n1 [Compound 222a, (R,E)-3-(2-((4-(2-(4-chlorophenyl)-2,3-dihydrobenzo[b][1,4]dioxin-5-yl)piperidin-1-yl)methyl)-1-(oxazol-2-ylmethyl)-1H-imidazol-4-yl)acrylic acid] | 6.9 |
| CCOCCn1c(/C=C/C(=O)O)cnc1CN1CCC(c2cccc3c2OC(C)(c2ccc(Cl)cc2F)O3)CC1 (centres unmarked) [Compound 197, (E)-3-(2-((4-(2-(4-chloro-2-fluorophenyl)-2-methylbenzo[d][1,3]dioxol-4-yl)piperidin-1-yl)methyl)-1-(2-ethoxyethyl)-1H-imidazol-5-yl)acrylic acid] | 0.019 |
| CC1(c2ccc(Cl)cc2F)Oc2cccc(C3CCN(Cc4ncc(/C=C/C(=O)O)n4Cc4ccno4)CC3)c2O1 (centres unmarked) [Compound 181, (E)-3-(2-((4-(2-(4-chloro-2-fluorophenyl)-2-methylbenzo[d][1,3]dioxol-4-yl)piperidin-1-yl)methyl)-1-(isoxazol-5-ylmethyl)-1H-imidazol-5-yl)acrylic acid] | 4.1 |
| CC1(c2ccc(Cl)cc2F)Oc2cccc(C3CCN(Cc4ncc(/C=C/C(=O)O)n4Cc4ncco4)CC3)c2O1 (centres unmarked) [Compound 183, (E)-3-(2-((4-(2-(4-chloro-2-fluorophenyl)-2-methylbenzo[d][1,3]dioxol-4-yl)piperidin-1-yl)methyl)-1-(oxazol-2-ylmethyl)-1H-imidazol-5-yl)acrylic acid] | 0.015 |
| CCn1cncc1Cn1c(/C=C/C(=O)O)nnc1CN1CCC(c2cccc3c2OC(C)(c2ccc(Cl)cc2F)O3)CC1 (centres unmarked) [Compound 142, (E)-3-(5-((4-(2-(4-chloro-2-fluorophenyl)-2-methylbenzo[d][1,3]dioxol-4-yl)piperidin-1-yl)methyl)-4-((1-ethyl-1H-imidazol-5-yl)methyl)-4H-1,2,4-triazol-3-yl)acrylic acid] | 0.012 |
| CCn1cncc1Cn1c(CCC(=O)O)nnc1CN1CCC(c2cccc3c2OC(C)(c2ccc(Cl)cc2F)O3)CC1 (centres unmarked) [Compound 144, 3-(5-((4-(2-(4-chloro-2-fluorophenyl)-2-methylbenzo[d][1,3]dioxol-4-yl)piperidin-1-yl)methyl)-4-((1-ethyl-1H-imidazol-5-yl)methyl)-4H-1,2,4-triazol-3-yl)propanoic acid] | 0.015 |
| CO[C@@H](C)Cn1c(/C=C/C(=O)O)cnc1CN1CCC(c2cccc3c2O[C@@](C)(c2ccc(Cl)cc2F)O3)CC1 [Compound 172a, (E)-3-(2-((4-((S)-2-(4-chloro-2-fluorophenyl)-2-methylbenzo[d][1,3]dioxol-4-yl)piperidin-1-yl)methyl)-1-((S)-2-methoxypropyl)-1H-imidazol-5-yl)acrylic acid] | 0.048 |
| CC1(c2ccc(Cl)cc2F)Oc2cccc(C3CCN(Cc4ncc(/C=C/C(=O)O)n4CCS(C)(=O)=O)CC3)c2O1 (centres unmarked) [Compound 161, (E)-3-(2-((4-(2-(4-chloro-2-fluorophenyl)-2-methylbenzo[d][1,3]dioxol-4-yl)piperidin-1-yl)methyl)-1-(2-(methylsulfonyl)ethyl)-1H-imidazol-5-yl)acrylic acid] | 0.18 |
| COCCn1c(Cc2noc(=O)[nH]2)cnc1CN1CCC(c2cccc3c2OC(C)(c2ccc(Cl)cc2F)O3)CC1 (centres unmarked) [Compound 251, 3-((2-((4-(2-(4-chloro-2-fluorophenyl)-2-methylbenzo[d][1,3]dioxol-4-yl)piperidin-1-yl)methyl)-1-(2-methoxyethyl)-1H-imidazol-5-yl)methyl)-1,2,4-oxadiazol-5(4H)-one] | 13 |
| CCn1cncc1Cn1c(/C=C(\C)C(=O)O)cnc1CN1CCC(c2cccc3c2OC(C)(c2ccc(Cl)cc2F)O3)CC1 (centres unmarked) [Compound 138, (E)-3-(2-((4-(2-(4-chloro-2-fluorophenyl)-2-methylbenzo[d][1,3]dioxol-4-yl)piperidin-1-yl)methyl)-1-((1-ethyl-1H-imidazol-5-yl)methyl)-1H-imidazol-5-yl)-2-methylacrylic acid] | 0.0034 |
| CCc1ncsc1Cn1c(/C=C/C(=O)O)cnc1CN1CCC(c2cccc3c2OC(C)(c2ccc(Cl)cc2F)O3)CC1 (centres unmarked) [Compound 188, (E)-3-(2-((4-(2-(4-chloro-2-fluorophenyl)-2-methylbenzo[d][1,3]dioxol-4-yl)piperidin-1-yl)methyl)-1-((4-ethylthiazol-5-yl)methyl)-1H-imidazol-5-yl)acrylic acid] | 0.22 |
| CC(Oc1ccc(CN2CCC(c3cccc(OCc4ccc(Cl)cc4F)n3)CC2)nc1)C(=O)O (centres unmarked) [Compound 125, 2-((6-((4-(6-((4-chloro-2-fluorobenzyl)oxy)pyridin-2-yl)piperidin-1-yl)methyl)pyridin-3-yl)oxy)propanoic acid] | > 1000 |
| O=C(O)CCc1ccc(CN2CCC(c3cccc(OCc4ccc(Cl)cc4F)n3)CC2)nc1 [Compound 118, 3-(6-((4-(6-((4-chloro-2-fluorobenzyl)oxy)pyridin-2-yl)piperidin-1-yl)methyl)pyridin-3-yl)propanoic acid] | > 1000 |
| O=C(O)/C=C/c1cnc(CN2CCC(c3cccc4c3OC[C@@H](c3ccc(Cl)cc3)O4)CC2)n1Cc1ccno1 [Compound 187a, (R,E)-3-(2-((4-(2-(4-chlorophenyl)-2,3-dihydrobenzo [b][1,4]dioxin-5-yl)piperidin-1-yl)methyl)-1-(isoxazol-5-ylmethyl)-1H-imidazol-5-yl)acrylic acid] | > 1000 |
| O=C(O)/C=C/c1cnc(CN2CCC(c3cccc4c3OC[C@@H](c3ccc(Cl)cc3)O4)CC2)n1Cc1ccccc1 [Compound 210a, (R,E)-3-(1-benzyl-2-((4-(2-(4-chlorophenyl)-2,3-dihydrobenzo[b][1,4]dioxin-5-yl)piperidin-1-yl)methyl)-1H-imidazol-5-yl)acrylic acid] | 0.43 |
| Cc1cc(-c2nnc(C(F)(F)F)[nH]2)cnc1CN1CCC(c2cccc3c2OC(C)(c2ccc(F)cc2F)O3)CC1 (centres unmarked) [Compound 262, 2-({4-[2-(2,4-difluorophenyl)-2-methyl-2H-1,3-benzodioxol-4-yl]piperidin-1-yl}methyl)-3-methyl-5-[5-(trifluoromethyl)-4H-1,2,4-triazol-3-yl]pyridine] | 3 |
| CCn1cncc1Cn1c(CCC(=O)O)cnc1CN1CCC(c2cccc3c2OC(C)(c2ccc(Cl)cc2F)O3)CC1 (centres unmarked) [Compound 143, 3-(2-((4-(2-(4-chloro-2-fluorophenyl)-2-methylbenzo[d][1,3]dioxol-4-yl)piperidin-1-yl)methyl)-1-((1-ethyl-1H-imidazol-5-yl)methyl)-1H-imidazol-5-yl)propanoic acid] | 0.0059 |
| CC1(c2ccc(Cl)cc2F)Oc2cccc(C3CCN(Cc4nnc(/C=C/C(=O)O)n4C[C@@H]4CCO4)CC3)c2O1 (stereo partly drawn) [Compound 136a, (E)-3-(5-((4-(2-(4-chloro-2-fluorophenyl)-2-methylbenzo[d][1,3]dioxol-4-yl)piperidin-1-yl)methyl)-4-(((S)-oxetan-2-yl)methyl)-4H-1,2,4-triazol-3-yl)acrylic acid] | 0.11 |
| C[C@H](Cn1c(/C=C/C(=O)O)cnc1CN1CCC(c2cccc3c2O[C@@](C)(c2ccc(Cl)cc2F)O3)CC1)OC(F)F [Compound 169b, (E)-3-(2-((4-((S)-2-(4-chloro-2-fluorophenyl)-2-methylbenzo[d][1,3]dioxol-4-yl)piperidin-1-yl)methyl)-1-((R)-2-(difluoromethoxy)propyl)-1H-imidazol-5-yl)acrylic acid] | 0.015 |
| C[C@H](Cn1c(/C=C/C(=O)O)cnc1CN1CCC(c2cccc3c2O[C@@](C)(c2ccc(Cl)cc2F)O3)CC1)OC1CC1 [Compound 170b, (E)-3-(2-((4-((S)-2-(4-chloro-2-fluorophenyl)-2-methylbenzo[d][1,3]dioxol-4-yl)piperidin-1-yl)methyl)-1-((R)-2-cyclopropoxypropyl)-1H-imidazol-5-yl)acrylic acid] | 0.0067 |
| CC1(c2ccc(Cl)cc2F)Oc2cccc(C3CCN(Cc4nc(/C=C/C(=O)O)cn4Cc4ccno4)CC3)c2O1 (centres unmarked) [Compound 182, (E)-3-(2-((4-(2-(4-chloro-2-fluorophenyl)-2-methylbenzo[d][1,3]dioxol-4-yl)piperidin-1-yl)methyl)-1-(isoxazol-5-ylmethyl)-1H-imidazol-4-yl)acrylic acid] | 93 |
